# US6762186B2, “Substituted imidazoles as dual histamine H1 and H3 agonists or antagonists” (Schering Corporation, priority 2000, dated 2004)
# What was measured:
# histamine H1 receptor = target: T1, histamine H1 receptor (Rattus norvegicus, UniProt P31390); experiment: H1-Receptor Binding Assay ([3H]pyrilamine, rat brain membranes); conditions: for Ki: Cheng-Prusoff from IC50, HCl salt; for inhibition at 1 µg/mL: HCl salt
# T1 construct: The tissue source was male Sprague-Dawley rat brain; tissue Rockland Corporation, Gilbertsville, Pa; host or cells: male Sprague-Dawley rat brain membranes
# T1 sequence (P31390 whole entry): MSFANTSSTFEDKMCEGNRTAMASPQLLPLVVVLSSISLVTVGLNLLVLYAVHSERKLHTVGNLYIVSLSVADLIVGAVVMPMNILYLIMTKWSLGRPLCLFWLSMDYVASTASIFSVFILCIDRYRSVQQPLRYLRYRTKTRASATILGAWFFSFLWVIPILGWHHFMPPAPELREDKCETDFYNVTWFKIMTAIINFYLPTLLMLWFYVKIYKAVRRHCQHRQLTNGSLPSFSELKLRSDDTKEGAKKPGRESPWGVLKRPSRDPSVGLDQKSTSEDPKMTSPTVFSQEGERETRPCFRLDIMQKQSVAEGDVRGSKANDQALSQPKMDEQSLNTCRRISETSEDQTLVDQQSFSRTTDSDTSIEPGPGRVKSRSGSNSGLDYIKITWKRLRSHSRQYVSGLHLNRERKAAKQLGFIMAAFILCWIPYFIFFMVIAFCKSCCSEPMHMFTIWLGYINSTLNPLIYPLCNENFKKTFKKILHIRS
# Excerpt: General Procedure for H1-Receptor Binding Assay
# The procedure used was based on that disclosed in V. T. Tran et al, “Histamine H1 receptors identified in mammalian brain membranes with [H-3]mepyramine”, Proc. Natl. Acad. Sci. U.S.A. 75 (1978) 6290-6294.
# I. Tissue preparation protocol for histamine H1 receptor binding assay:
# 1. The tissue source was male Sprague-Dawley rat brain. These were purchased stripped and frozen (available from Rockland Corporation, Gilbertsville, Pa.). The buffer used was ice-cold 50 mM Tris-HCl, pH 7.5. (The pH was determined at 25° C.)
# 2. The brains were spread out on plastic wrap on the benchtop and allowed to thaw for 10-15 min. After this, everything was kept ice-cold.
# 3. Two brains were put in each 50 ml round bottom centrifuge tube and 25 ml of buffer was added. Then they were broken up with a Polytron (from Brinkmann Instruments, Westbury, N.Y.) equipped with a PT-10 tip at setting 6 for 30 sec.
# 4. The volume in the tube was brought up to 45 ml and mixed and the particulate material was centrifuged at 1000×g (3000 rpm, SS-34 rotor) for 10 min to remove nuclei and unbroken cells.
# 5. Pellets were discarded and the supernatants were centrifuged 10 min at 50,000×g (20,000 rpm, SS-34 rotor).
# 6. The high-speed pellets were resuspended in a volume of Tris buffer equal to the original ([…]), the contents of all tubes were pooled, and a sample was taken for BCA protein assay. The material was aliquotted, 45 ml per round-bottom tube, and the resuspension was recentrifuged. The yield of protein was approximately 20 mg/brain, so there was about 40 mg of protein per tube.
# 7. Pellets were frozen at −80° C.
# II. H1 Histamine receptor binding assay:
# 1. The compounds for assay were independently solubilized at 1 mg/ml DMSO by vortexing, or if necessary by sonication. The first dilution, 100-fold, was made in 50 mM Tris-HCl, pH 7.5, at room temperature. The three or four subsequent ten-fold serial dilutions were made in 1% DMSO/50 mM Tris-HCl, pH 7.5. Drug solutions and assay plates were kept at room temperature during the course of the assay set up.
# 2. Test compounds were assayed at four or five concentrations: 1, 0.1, 0.01, 0.001, and 0.0001 μg/ml. Twenty μl of drug solution was pipeted into each of three wells.
# 3. [^3H]Pyrilamine was diluted approximately 2000-fold with ice-cold […] Tris-HCl, pH 7.5 (to a working concentration of 20-25 nM), and put on ice.
# 4. A frozen tissue pellet was thawed in a 25° C. water bath, resuspended in 50 mM Tris-HCl, pH 7.5, at 1.7-2 mg/ml by brief break-up on the Polytron, and put on ice.
# 5. Twenty μl of diluted [^3H]pyrilamine was added to each well.
# 6. One hundred fifty μl of tissue suspension was added to each well.
# 7. The top of the plate was covered and it was placed in a 25° C. shaking water bath (about 60 oscillations/min) for 30 min.
# 8. Samples were filtered on a Tomtec Mach 2 harvester (available from Tomtec Corporation, Orange, Conn.) through a GF/B filter mat (from Wallac, Inc., Gaithersburg, Md.) presoaked in 0.3% polyethylenimine. Each sample was thrice washed with ice-cold 50 mM Tris-HCl, pH 7.5 dried 20 sec on the Tomtec, and dried 3-4 min in a microwave oven on a paper towel. The filter was impregnated with MELTILEX brand wax scintillant (from Wallac Corporation) and counted on a Betaplate scintillation counter (from Wallac Corporation).
# 9. Specific binding was determined as the difference between total and nonspecific binding. The percent inhibition in the presence of inhibitor or standard was determined using the formula:
# [1-(sample binding-nonspecific binding)/specific binding]×100
# For compounds that inhibit more than 50% at 1 μg/ml, an IC50 value was interpolated from proximate concentrations. […]
# H3 receptors = target: T2, H3 receptors (Cavia porcellus, UniProt Q9JI35); experiment: H3-Receptor Binding Assay ([3H]R-α-methyl histamine or [3H]Nα-methyl histamine, guinea pig brain membranes); conditions: for Ki: HCl salt of the indicated compounds; for inhibition at 2 µg/mL: final concentration 2 μg/ml, HCl salt
# T2 construct: The source of the H3 receptors in this experiment was guinea pig brain; from tissue; host or cells: guinea pig brain membranes
# T2 sequence (Q9JI35 whole entry): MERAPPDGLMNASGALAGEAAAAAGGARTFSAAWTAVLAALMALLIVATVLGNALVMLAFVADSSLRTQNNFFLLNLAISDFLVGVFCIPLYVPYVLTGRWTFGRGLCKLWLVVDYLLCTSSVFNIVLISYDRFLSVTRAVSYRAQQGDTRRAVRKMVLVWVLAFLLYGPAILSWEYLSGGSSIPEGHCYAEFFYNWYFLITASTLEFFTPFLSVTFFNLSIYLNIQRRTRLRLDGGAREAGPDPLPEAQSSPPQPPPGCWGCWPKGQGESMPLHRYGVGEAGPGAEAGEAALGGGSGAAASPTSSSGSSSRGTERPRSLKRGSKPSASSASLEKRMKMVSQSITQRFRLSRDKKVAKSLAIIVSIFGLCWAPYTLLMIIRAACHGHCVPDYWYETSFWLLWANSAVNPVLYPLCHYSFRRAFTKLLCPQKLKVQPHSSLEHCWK
# Experimental: General Procedure for H3-Receptor Binding Assay
# The source of the H3 receptors in this experiment was guinea pig brain. The animals weighed 400-600 g. The brain tissue was homogenized with a solution of 50 mM Tris, pH 7.5. The final concentration of tissue in the homogenization buffer was 10% w/v. The homogenates were centrifuged at 1,000×g for 10 min. in order to remove clumps of tissue and debris. The resulting supernatants were then centrifuged at 50,000×g for 20 min. in order to sediment the membranes, which were next washed three times in homogenization buffer (50,000×g for 20 min. each). The membranes were frozen and stored at −70° C. until needed.
# All compounds to be tested were dissolved in DMSO and then diluted into the binding buffer (50 mM Tris, pH 7.5) such that the final concentration was 2 μg/ml with 0.1% DMSO. Membranes were then added (400 μg of protein) to the reaction tubes. The reaction was started by the addition of 3 nM [^3H]R-α-methyl histamine (8.8 Ci/mmol) or 3 nM [^3H]N^α-methyl histamine (80 Ci/mmol) and continued under incubation at 30° C. for 30 min. Bound ligand was separated from unbound ligand by filtration, and the amount of radioactive ligand bound to the membranes was quantitated by liquid scintillation spectrometry. All incubations were performed in duplicate and the standard error was always less than 10%. Compounds that inhibited more than 70% of the specific binding of radioactive ligand to the receptor were serially diluted to determine a Ki (nM). The results are given in Table 1 for the HCl salt of the indicated compounds.
Ki (histamine H1 receptor),Ki (H3 receptors),inhibition at 2 µg/mL (H3 receptors),inhibition at 1 µg/mL (histamine H1 receptor),SMILES
0.005 µM,0.073 µM,–,–,Clc1ccc(C(c2ccccn2)N2CCN(Cc3c[nH]cn3)CC2)cc1 (stereo not shown)
0.0017 µM,0.101 µM,–,–,Clc1ccc(C(c2ccccc2)N2CCN(Cc3c[nH]cn3)CC2)cc1 (stereo not shown)
–,–,15%,–,O=C(CC(c1ccccc1)c1ccccc1)N1CCN(Cc2c[nH]cn2)CC1
0.08 µM,–,62%,–,c1ccc(C(CCN2CCN(Cc3c[nH]cn3)CC2)c2ccccc2)cc1
0.04 µM,0.066 µM,–,–,Clc1ccc(C(c2ccccn2)N2CCN(CCCc3c[nH]cn3)CC2)cc1 (stereo not shown)
0.011 µM,0.039 µM,–,–,O=C(COCCN1CCN(C(c2ccccc2)c2ccc(Cl)cc2)CC1)NCCCCc1c[nH]cn1 (stereo not shown)
0.0185 µM,0.021 µM,–,–,Clc1ccc(C(c2ccccn2)N2CCN(CCCCCCCNCCCCc3c[nH]cn3)CC2)cc1 (stereo not shown)
0.005 µM,0.039 µM,–,–,Clc1ccc(C(c2ccccn2)N2CCN(CCCCc3c[nH]cn3)CC2)cc1 (stereo not shown)
0.0045 µM,0.003 µM,–,–,Clc1ccc(C(=C2CCN(CCCCc3c[nH]cn3)CC2)c2ccccn2)cc1
0.0045 µM,0.008 µM,–,–,Clc1ccc(C(=C2CCN(CCCCCc3c[nH]cn3)CC2)c2ccccn2)cc1
–,0.0095 µM,–,2%,O=C(C(c1ccc(Cl)cc1)c1ccc(Cl)cc1)N1CCC(CCc2c[nH]cn2)C1 (stereo not shown)
0.021 µM,0.007 µM,–,–,Clc1ccc(C(CCN2CCN(CCCCc3c[nH]cn3)CC2)c2ccccn2)cc1 (stereo not shown)
0.003 µM,0.011 µM,–,–,Clc1ccc(C(=C2CCN(CCCCCCc3c[nH]cn3)CC2)c2ccccn2)cc1
0.025 µM,0.13 µM,–,–,Clc1ccc(C(CCN2CCN(Cc3c[nH]cn3)CC2)c2ccccn2)cc1 (stereo not shown)
–,0.032 µM,–,14%,O=C(CC(c1ccc(Cl)cc1)c1ccccn1)N1CCN(CCCCc2c[nH]cn2)CC1 (stereo not shown)
–,0.025 µM,–,18%,Clc1ccc(C(CN2CCC(CCc3c[nH]cn3)C2)c2ccc(Cl)cc2)cc1 (stereo not shown)
0.05 µM,0.066 µM,–,–,O=C(C(c1ccccc1)c1ccccc1)N1CCC(Cc2c[nH]cn2)CC1
0.019 µM,0.0003 µM,–,–,O=C(CC(c1ccc(Cl)cc1)c1ccccn1)N1CCC(Cc2c[nH]cn2)CC1 (stereo not shown)

SMILES,Ki (histamine H1 receptor),Ki (H3 receptors),inhibition at 2 µg/mL (H3 receptors),inhibition at 1 µg/mL (histamine H1 receptor)
c1ccc(C(c2ccccc2)C2CCN(CCCCCc3c[nH]cn3)CC2)cc1,0.028 µM,0.019 µM,–,–
